{"source": "patent US10597388B2", "about": "“Pyridazinone herbicides” (FMC CORPORATION, priority 2014, dated 2020)", "test_in_all_cases": "Test D controlled growth environment herbicide test, pre- and postemergence", "assay_type_in_all_cases": "in vivo", "key": {"[1]": {"test_system": "field poppy (Papaver rhoeas)", "procedure,_shortened": "(§1)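 Rating is visual, 0–100 scale (100 = complete control), made against untreated plants 14–21 d after treatment in controlled growth conditions. Postemergence sprays went onto 1- to 4-leaf plants in peat medium; preemergence sprays onto silt loam after sowing; formulation included a surfactant.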"}, "[2]": {"test_system": "foxtail, green (green foxtail, Setaria viridis)", "procedure,_shortened": "as §1"}, "[3]": {"test_system": "barley, spring (spring barley, Hordeum vulgare)", "procedure,_shortened": "as §1"}, "[4]": {"test_system": "bluegrass (annual bluegrass, Poa annua)", "procedure,_shortened": "as §1"}, "[5]": {"test_system": "windgrass (Apera spica-venti)", "procedure,_shortened": "as §1"}, "[6]": {"test_system": "mustard, wild (wild mustard, Sinapis arvensis)", "procedure,_shortened": "as §1"}, "[7]": {"test_system": "deadnettle (henbit deadnettle, Lamium amplexicaule)", "procedure,_shortened": "as §1"}, "[8]": {"test_system": "wheat, winter (winter wheat, Triticum aestivum)", "procedure,_shortened": "as §1"}, "[9]": {"test_system": "ryegrass, Italian (Italian ryegrass, Lolium multiflorum)", "procedure,_shortened": "as §1"}, "[10]": {"test_system": "canarygrass (Phalaris minor)", "procedure,_shortened": "as §1"}, "[11]": {"test_system": "barley, winter (winter barley, Hordeum vulgare)", "procedure,_shortened": "as §1"}, "[12]": {"test_system": "radish, wild (wild radish, Raphanus raphanistrum)", "procedure,_shortened": "as §1"}, "[13]": {"test_system": "chickweed (common chickweed, Stellaria media)", "procedure,_shortened": "as §1"}, "[14]": {"conditions": "Postemergence, 31 g ai/ha, scale 0 to 100 (0 no effect, 100 complete control)"}, "[15]": {"conditions": "Postemergence, 125 g ai/ha, visual rating on scale 0 (no effect) to 100 (complete control), 14 to 21 d"}, "[16]": {"conditions": "Postemergence, 250 g ai/ha, scale 0 to 100 (0 no effect, 100 complete control)"}, "[17]": {"conditions": "Preemergence, 62 g ai/ha, scale 0 to 100 (0 no effect, 100 complete control)"}, "[18]": {"conditions": "Preemergence, 125 g ai/ha, scale 0 to 100 (0 no effect, 100 complete control)"}, "[19]": {"conditions": "Preemergence, 250 g ai/ha, scale 0 to 100 (0 no effect, 100 complete control)"}, "[20]": {"conditions": "postemergence, 62 g ai/ha, scale 0 to 100, 0 no effect, 100 complete control"}}, "data": [{"smiles": "Cc1ccc2ccccc2c1-c1c(O)c(C)nn(C)c1=O", "note": "[Compound 59]", "values": [{"measurement": "Field Poppy plant response rating", "setting": "[1]; [14]", "result": 70}, {"measurement": "Plant response rating, Field Poppy", "setting": "[1]; [15]", "result": 95}, {"measurement": "Plant response rating, Field Poppy", "setting": "[1]; [16]", "result": 100}, {"measurement": "Plant response rating (scale of 0 to 100), Field Poppy", "setting": "[1]; Preemergence, 31 g ai/ha", "result": 100}, {"measurement": "Plant response rating, Field Poppy", "setting": "[1]; [17]", "result": 100}, {"measurement": "Plant response rating, Field Poppy", "setting": "[1]; [18]", "result": 100}, {"measurement": "Plant response rating, Field Poppy", "setting": "[1]; [19]", "result": 100}, {"measurement": "Plant response rating, Field Poppy", "setting": "[1]; [20]", "result": 75}, {"measurement": "Foxtail, Green plant response rating", "setting": "[2]; [14]", "result": 65}, {"measurement": "Plant response rating, Foxtail, Green", "setting": "[2]; [15]", "result": 75}, {"measurement": "Plant response rating, Foxtail, Green", "setting": "[2]; [16]", "result": 85}, {"measurement": "Plant response rating (scale of 0 to 100), Foxtail, Green", "setting": "[2]; Preemergence, 31 g ai/ha", "result": 55}, {"measurement": "Plant response rating, Foxtail, Green", "setting": "[2]; [17]", "result": 75}, {"measurement": "Plant response rating, Foxtail, Green", "setting": "[2]; [18]", "result": 85}, {"measurement": "Plant response rating, Foxtail, Green", "setting": "[2]; [19]", "result": 100}, {"measurement": "Plant response rating, Foxtail, Green", "setting": "[2]; [20]", "result": 70}, {"measurement": "Barley, Spring plant response rating", "setting": "[3]; [14]", "result": 25}, {"measurement": "Plant response rating, Barley, Spring", "setting": "[3]; [15]", "result": 40}, {"measurement": "Plant response rating, Barley, Spring", "setting": "[3]; [16]", "result": 60}, {"measurement": "Plant response rating (scale of 0 to 100), Barley, Spring", "setting": "[3]; Preemergence, 31 g ai/ha", "result": 5}, {"measurement": "Plant response rating, Barley, Spring", "setting": "[3]; [17]", "result": 25}, {"measurement": "Plant response rating, Barley, Spring", "setting": "[3]; [18]", "result": 40}, {"measurement": "Plant response rating, Barley, Spring", "setting": "[3]; [19]", "result": 60}, {"measurement": "Plant response rating, Barley, Spring", "setting": "[3]; [20]", "result": 30}, {"measurement": "Bluegrass plant response rating", "setting": "[4]; [14]", "result": 25}, {"measurement": "Plant response rating, Bluegrass", "setting": "[4]; [15]", "result": 55}, {"measurement": "Plant response rating, Bluegrass", "setting": "[4]; [16]", "result": 75}, {"measurement": "Plant response rating (scale of 0 to 100), Bluegrass", "setting": "[4]; Preemergence, 31 g ai/ha", "result": 30}, {"measurement": "Plant response rating, Bluegrass", "setting": "[4]; [17]", "result": 50}, {"measurement": "Plant response rating, Bluegrass", "setting": "[4]; [18]", "result": 75}, {"measurement": "Plant response rating, Bluegrass", "setting": "[4]; [19]", "result": 80}, {"measurement": "Plant response rating, Bluegrass", "setting": "[4]; [20]", "result": 40}, {"measurement": "Windgrass plant response rating", "setting": "[5]; [14]", "result": 75}, {"measurement": "Plant response rating, Windgrass", "setting": "[5]; [15]", "result": 80}, {"measurement": "Plant response rating, Windgrass", "setting": "[5]; [16]", "result": 85}, {"measurement": "Plant response rating (scale of 0 to 100), Windgrass", "setting": "[5]; Preemergence, 31 g ai/ha", "result": 85}, {"measurement": "Plant response rating, Windgrass", "setting": "[5]; [17]", "result": 85}, {"measurement": "Plant response rating, Windgrass", "setting": "[5]; [18]", "result": 100}, {"measurement": "Plant response rating, Windgrass", "setting": "[5]; [19]", "result": 100}, {"measurement": "Plant response rating, Windgrass", "setting": "[5]; [20]", "result": 80}, {"measurement": "Mustard, Wild plant response rating", "setting": "[6]; [14]", "result": 90}, {"measurement": "Plant response rating, Mustard, Wild", "setting": "[6]; [15]", "result": 100}, {"measurement": "Plant response rating, Mustard, Wild", "setting": "[6]; [16]", "result": 100}, {"measurement": "Plant response rating (scale of 0 to 100), Mustard, Wild", "setting": "[6]; Preemergence, 31 g ai/ha", "result": 95}, {"measurement": "Plant response rating, Mustard, Wild", "setting": "[6]; [17]", "result": 95}, {"measurement": "Plant response rating, Mustard, Wild", "setting": "[6]; [18]", "result": 100}, {"measurement": "Plant response rating, Mustard, Wild", "setting": "[6]; [19]", "result": 100}, {"measurement": "Plant response rating, Mustard, Wild", "setting": "[6]; [20]", "result": 100}, {"measurement": "Deadnettle plant response rating", "setting": "[7]; [14]", "result": 80}, {"measurement": "Plant response rating, Deadnettle", "setting": "[7]; [15]", "result": 90}, {"measurement": "Plant response rating, Deadnettle", "setting": "[7]; [16]", "result": 100}, {"measurement": "Plant response rating (scale of 0 to 100), Deadnettle", "setting": "[7]; Preemergence, 31 g ai/ha", "result": 50}, {"measurement": "Plant response rating, Deadnettle", "setting": "[7]; [17]", "result": 90}, {"measurement": "Plant response rating, Deadnettle", "setting": "[7]; [18]", "result": 90}, {"measurement": "Plant response rating, Deadnettle", "setting": "[7]; [19]", "result": 100}, {"measurement": "Plant response rating, Deadnettle", "setting": "[7]; [20]", "result": 80}, {"measurement": "Wheat, Winter plant response rating", "setting": "[8]; [14]", "result": 35}, {"measurement": "Plant response rating, Wheat, Winter", "setting": "[8]; [15]", "result": 55}, {"measurement": "Plant response rating, Wheat, Winter", "setting": "[8]; [16]", "result": 80}, {"measurement": "Plant response rating (scale of 0 to 100), Wheat, Winter", "setting": "[8]; Preemergence, 31 g ai/ha", "result": 10}, {"measurement": "Plant response rating, Wheat, Winter", "setting": "[8]; [17]", "result": 35}, {"measurement": "Plant response rating, Wheat, Winter", "setting": "[8]; [18]", "result": 70}, {"measurement": "Plant response rating, Wheat, Winter", "setting": "[8]; [19]", "result": 80}, {"measurement": "Plant response rating, Wheat, Winter", "setting": "[8]; [20]", "result": 40}, {"measurement": "Ryegrass, Italian plant response rating", "setting": "[9]; [14]", "result": 80}, {"measurement": "Plant response rating, Ryegrass, Italian", "setting": "[9]; [15]", "result": 90}, {"measurement": "Plant response rating, Ryegrass, Italian", "setting": "[9]; [16]", "result": 90}, {"measurement": "Plant response rating (scale of 0 to 100), Ryegrass, Italian", "setting": "[9]; Preemergence, 31 g ai/ha", "result": 100}, {"measurement": "Plant response rating, Ryegrass, Italian", "setting": "[9]; [17]", "result": 100}, {"measurement": "Plant response rating, Ryegrass, Italian", "setting": "[9]; [18]", "result": 100}, {"measurement": "Plant response rating, Ryegrass, Italian", "setting": "[9]; [19]", "result": 100}, {"measurement": "Plant response rating, Ryegrass, Italian", "setting": "[9]; [20]", "result": 90}, {"measurement": "Canarygrass plant response rating", "setting": "[10]; [14]", "result": 75}, {"measurement": "Plant response rating, Canarygrass", "setting": "[10]; [15]", "result": 90}, {"measurement": "Plant response rating, Canarygrass", "setting": "[10]; [16]", "result": 90}, {"measurement": "Plant response rating (scale of 0 to 100), Canarygrass", "setting": "[10]; Preemergence, 31 g ai/ha", "result": 80}, {"measurement": "Plant response rating, Canarygrass", "setting": "[10]; [17]", "result": 90}, {"measurement": "Plant response rating, Canarygrass", "setting": "[10]; [18]", "result": 95}, {"measurement": "Plant response rating, Canarygrass", "setting": "[10]; [19]", "result": 100}, {"measurement": "Plant response rating, Canarygrass", "setting": "[10]; [20]", "result": 80}, {"measurement": "Barley, Winter plant response rating", "setting": "[11]; [14]", "result": 20}, {"measurement": "Plant response rating, Barley, Winter", "setting": "[11]; [15]", "result": 45}, {"measurement": "Plant response rating, Barley, Winter", "setting": "[11]; [16]", "result": 60}, {"measurement": "Plant response rating (scale of 0 to 100), Barley, Winter", "setting": "[11]; Preemergence, 31 g ai/ha", "result": 15}, {"measurement": "Plant response rating, Barley, Winter", "setting": "[11]; [17]", "result": 25}, {"measurement": "Plant response rating, Barley, Winter", "setting": "[11]; [18]", "result": 40}, {"measurement": "Plant response rating, Barley, Winter", "setting": "[11]; [19]", "result": 45}, {"measurement": "Plant response rating, Barley, Winter", "setting": "[11]; [20]", "result": 30}, {"measurement": "Radish, Wild plant response rating", "setting": "[12]; [14]", "result": 95}, {"measurement": "Plant response rating, Radish, Wild", "setting": "[12]; [15]", "result": 100}, {"measurement": "Plant response rating, Radish, Wild", "setting": "[12]; [16]", "result": 100}, {"measurement": "Plant response rating, Radish, Wild", "setting": "[12]; [17]", "result": 85}, {"measurement": "Plant response rating, Radish, Wild", "setting": "[12]; [18]", "result": 95}, {"measurement": "Plant response rating, Radish, Wild", "setting": "[12]; [19]", "result": 100}, {"measurement": "Plant response rating, Radish, Wild", "setting": "[12]; [20]", "result": 95}, {"measurement": "Chickweed plant response rating", "setting": "[13]; [14]", "result": 100}, {"measurement": "Plant response rating, Chickweed", "setting": "[13]; [15]", "result": 100}, {"measurement": "Plant response rating, Chickweed", "setting": "[13]; [16]", "result": 100}, {"measurement": "Plant response rating (scale of 0 to 100), Chickweed", "setting": "[13]; Preemergence, 31 g ai/ha", "result": 100}, {"measurement": "Plant response rating, Chickweed", "setting": "[13]; [17]", "result": 100}, {"measurement": "Plant response rating, Chickweed", "setting": "[13]; [18]", "result": 100}, {"measurement": "Plant response rating, Chickweed", "setting": "[13]; [19]", "result": 100}, {"measurement": "Plant response rating, Chickweed", "setting": "[13]; [20]", "result": 98}]}]}
